According to ChEMBL document CHEMBL4689842, “EUbOPEN Chemogenomics Library wave 1” (2021):

Legend:
Type in all cases: toxicity, cell-based
[1] = tested on: U2OS; assay: Incucyte cell viability with U2OS; conditions: human, 10 µM, compound concentration 10 uM
[2] = tested on: HEK-293T; assay: Incucyte cell viability with HEK293T; conditions: human, 10 µM, compound concentration 10 uM
[3] = tested on: Fibroblast; assay: Incucyte cell viability with human fibroblast; conditions: 10 µM, compound concentration 10 uM
[4] = 0 h, replicate number 1, timepoint 0 hours
[5] = 12 h, replicate number 1, timepoint 12 hours
[6] = 18 h, replicate number 1, timepoint 18 hours
[7] = 24 h, replicate number 1, timepoint 24 hours
[8] = 6 h, replicate number 1, timepoint 6 hours
[9] = 18 h, replicate number 2, timepoint 18 hours
[10] = 6 h, replicate number 2, timepoint 6 hours
[11] = 12 h, replicate number 2, timepoint 12 hours
[12] = 24 h, replicate number 2, timepoint 24 hours
[13] = 0 h, replicate number 2, timepoint 0 hours
Note: filed as whole numbers so only -1 and 0 and 1 occur.

Row | Compound | Growth Rate [1, 4] | Growth Rate [1, 5] | Growth Rate [1, 6] | Growth Rate [1, 7] | Growth Rate [2, 4] | Growth Rate [2, 8] | Growth Rate [2, 5] | Growth Rate [2, 6] | Growth Rate [2, 7] | Growth Rate [3, 4] | Growth Rate [3, 8] | Growth Rate [3, 5] | Growth Rate [3, 6] | Growth Rate [3, 9] | Growth Rate [3, 7] | Growth Rate [1, 8] | Growth Rate [1, 11] | Growth Rate [1, 9] | Growth Rate [1, 12] | Growth Rate [2, 10] | also measured
1 | C/C(=C/C=C/C(C)=C/C(=O)O)c1cc(C(C)(C)C)cc(C(C)(C)C)c1OCC(F)F | 0 | 1 | 1 | 1 | 0 | 0 | 0 | 0 | 0 | 0 | 0 | 0 | 0 | 1 | 0 | – | – | – | – | – | –
2 | C[C@H](NC(=O)Nc1cc2[nH]ncc2c(CO)n1)c1ccccn1 [ERKi-NC] | 0 | 0 | 0 | 0 | 0 | – | – | 1 | 1 | – | 0 | 0 | 1 | 0 | 1 | 0 | 1 | 1 | 1 | – | Growth Rate [1, 10]: 1; Growth Rate [2, 13]: 1; Growth Rate [3, 13]: 1
3 | c1cc(CN2CCCNCCNCCCNCC2)ccc1CN1CCCNCCNCCCNCC1 [PLERIXAFOR] | – | 1 | 1 | 1 | 1 | 0 | 0 | 0 | 0 | 0 | 1 | 0 | 1 | 0 | 0 | 0 | 0 | 0 | 0 | 1 | Growth Rate [2, 13]: 0; Growth Rate [3, 13]: 1; Growth Rate [3, 10]: 0
4 | C[C@@H](N)Cc1c[nH]cn1.Cl.Cl | 1 | 0 | 0 | 0 | 0 | 1 | 1 | 1 | 1 | 1 | 0 | 0 | 0 | – | 0 | 0 | 1 | 1 | 1 | 0 | Growth Rate [2, 11]: 0; Growth Rate [2, 9]: 0; Growth Rate [2, 12]: 0; Growth Rate [3, 13]: 0; Growth Rate [3, 12]: 1
5 | CCOP(=O)(OCC)C(=Cc1cc(C(C)(C)C)c(O)c(C(C)(C)C)c1)P(=O)(OCC)OCC | 1 | 0 | 0 | 0 | 0 | – | 0 | 0 | 0 | – | 0 | 0 | 0 | 1 | 0 | – | – | – | – | 0 | Growth Rate [1, 13]: 0; Growth Rate [1, 10]: 0
6 | CCOC(=O)c1ccc(C#Cc2ccc3c(c2)C(C)(C)CCS3)nc1 [TAZAROTENE] | – | 0 | 0 | 0 | – | 0 | 0 | 0 | 0 | 0 | – | 1 | 1 | – | 0 | – | 1 | 1 | 1 | 1 | Growth Rate [1, 13]: 0; Growth Rate [1, 10]: 1; Growth Rate [2, 13]: 0
